US8691818B2, “Cyclic triazo and diazo sodium channel blockers” (University Of Greenwich, priority 2008, dated 2014)
pIC50: −log10 of the molar value. Where two headings read alike, the source gives them in different places.

Assays:
[1] = target: T1, DiHydroFolate Reductase (DHFR) (Rattus norvegicus, UniProt Q920D2); assay: Inhibition of binding of [3H]methotrexate to rat liver homogenate supernatant; conditions: for inhibition at 125 µM: read-out: [3H]mtx binding (% inhibition @ 125 μM); for inhibition at 99 µM: read-out: [3H]mtx binding % inhibition (* 99 μM, *** uses fresh batch of supernatant), 99 μM, fresh batch of supernatant
T1 construct: from tissue; host or cells: rat liver homogenate supernatant
T1 sequence (Q920D2 1-187): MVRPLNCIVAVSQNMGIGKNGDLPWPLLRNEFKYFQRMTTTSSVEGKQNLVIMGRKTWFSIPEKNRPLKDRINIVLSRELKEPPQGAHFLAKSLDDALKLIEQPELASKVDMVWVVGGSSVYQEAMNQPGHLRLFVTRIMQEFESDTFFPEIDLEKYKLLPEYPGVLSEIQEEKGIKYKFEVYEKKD
In short: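 Displacement of [3H]methotrexate binding to rat liver homogenate supernatant, prepared at 4 °C in pH 6.0 phosphate buffer with 15 mM dithiothreitol. Values are mean±sem over the number of experiments shown.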

[2] = system: sodium channel; assay: [14C]guanidine flux: veratrine-evoked uptake of [14C]guanidine into rat forebrain synaptosomes (primary sodium channel assay); format: biochemical; conditions: 30° for 2½ min
In short: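 Synaptosomal fraction from male Wistar rat forebrain (without cerebellum/medulla), 20-25 mg wet weight/ml. Veratrine-evoked [14C]guanidine uptake at 30° for 2½ min across a compound concentration range; IC50 from concentration-effect curves, mean±sem.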

[3] = target: hERG (Homo sapiens, UniProt Q12809); assay: hERG: inhibition of binding of [3H]astemizole to HEK-293 cells expressing human recombinant hERG; conditions: for hERG % inhibition @ 10 μM: [3H]astemizole binding; for IC50: read-out: hERG IC50 (μM) (extrapolated from 10 μM inh'n), extrapolated assuming binding slope 1.0; for inhibition at 10 µM: human, probe [3H]astemizole
Chain of hERG (Q12809 whole entry): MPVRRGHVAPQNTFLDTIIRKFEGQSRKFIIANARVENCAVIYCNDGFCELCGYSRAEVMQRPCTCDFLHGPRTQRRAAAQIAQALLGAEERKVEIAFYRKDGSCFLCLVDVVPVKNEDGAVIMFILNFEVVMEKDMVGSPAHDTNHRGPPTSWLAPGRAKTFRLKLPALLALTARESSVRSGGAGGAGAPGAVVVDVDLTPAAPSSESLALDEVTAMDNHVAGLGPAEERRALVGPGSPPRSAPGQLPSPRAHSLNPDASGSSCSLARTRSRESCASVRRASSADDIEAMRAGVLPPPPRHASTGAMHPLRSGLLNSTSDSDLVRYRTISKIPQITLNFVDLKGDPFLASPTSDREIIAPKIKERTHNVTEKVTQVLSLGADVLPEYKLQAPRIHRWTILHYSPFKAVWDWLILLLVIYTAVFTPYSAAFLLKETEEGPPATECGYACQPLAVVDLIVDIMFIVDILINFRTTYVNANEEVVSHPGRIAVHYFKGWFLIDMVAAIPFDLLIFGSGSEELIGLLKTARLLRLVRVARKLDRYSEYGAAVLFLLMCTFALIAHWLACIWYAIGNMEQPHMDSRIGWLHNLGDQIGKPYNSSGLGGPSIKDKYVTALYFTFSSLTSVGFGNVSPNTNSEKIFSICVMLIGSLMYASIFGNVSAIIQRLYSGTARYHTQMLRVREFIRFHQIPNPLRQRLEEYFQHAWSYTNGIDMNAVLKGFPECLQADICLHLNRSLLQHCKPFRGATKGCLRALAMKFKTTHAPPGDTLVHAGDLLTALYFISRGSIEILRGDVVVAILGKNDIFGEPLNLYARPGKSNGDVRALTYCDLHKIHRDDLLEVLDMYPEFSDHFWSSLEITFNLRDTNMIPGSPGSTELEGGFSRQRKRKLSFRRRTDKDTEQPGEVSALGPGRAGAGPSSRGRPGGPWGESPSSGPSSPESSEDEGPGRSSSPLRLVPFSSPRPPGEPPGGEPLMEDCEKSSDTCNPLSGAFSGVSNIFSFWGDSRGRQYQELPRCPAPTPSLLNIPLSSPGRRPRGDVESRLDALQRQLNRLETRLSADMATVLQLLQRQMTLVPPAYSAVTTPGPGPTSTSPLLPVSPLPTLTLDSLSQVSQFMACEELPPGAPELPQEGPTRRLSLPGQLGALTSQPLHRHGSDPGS

Molecule | [3H]mtx binding (% inhibition @ 125 μM) [1] [%] | pIC50 [2] | inhibition at 125 µM [1] [%] | melting point | inhibition at 99 µM [1] [%] | hERG % inhibition @ 10 μM [3] [%] | IC50 [3] [µM] | pIC50 [3] | inhibition at 10 µM [3] [%]
3,5-Diamino-6-[1-(2,5-dimethoxynaphthyl)-1,2,4-triazine [CEN-157] | −1 | 3.69 | – | – | – | 6 | 157 | – | –
Cn1nc(-c2cccc3c2CCCC3)c(N)nc1=N [CEN-120, 5(3)-Amino-6-[1-(5,6,7,8-tetrahydronaphthyl)]-2,3(2,5)-dihydro-3(5)-imino-2-methyl-1,2,4-triazine methanesulfonate] | – | 3.71 | 18 | – | – | – | – | 3.80 | 6
CCn1nc(-c2ccc3ccccc3c2)c(N)nc1=N [CEN-75, 5(3)-Amino-6-(2-naphthyl)-2,3(2,5)-dihydro-3(5)-imino-2-ethyl-1,2,4-triazine methanesulfonate] | – | 4.31 | 5 | – | – | – | – | 5.52 | 78
Nc1nnc(-c2ccc3cc(Br)ccc3c2)c(N)n1 [CEN-96] | – | 3.96 | 105 | 260 to 262 °C | – | – | – | – | –
Nc1nnc(-c2ccc3c(c2)OCO3)c(N)n1 [CEN-103, 3,5-Diamino-6-(3,4-methylenedioxyphenyl)-1,2,4-triazine] | – | < 3.00 | 47 | 217 to 218 °C | – | – | – | – | –
Nc1nnc(-c2ccccc2Oc2ccccc2)c(N)n1 [CEN-97, 3,5-Diamino-6-(2-phenoxphenyl)-1,2,4-triazine] | – | 3.44 | 101 | 200 to 202 °C | – | – | – | – | –
Nc1nnc(-c2sc3ccccc3c2Cl)c(N)n1 [CEN-114, 3,5-Diamino-6-[2-(3-chlorobenzo[b]thiophenyl)]-1,2,4-triazine] | – | 3.76 | 46 | 318 to 320 °C | – | – | – | – | –
Nc1nnc(-c2cccs2)c(N)n1 [CEN-57, 3,5-Diamino-6-(2-thienyl)-1,2,4-triazine] | – | < 2.70 | 44 | 271 to 272 °C (dec.) | – | – | – | – | –
Nc1nnc(-c2cccc3ccccc23)c(N)n1 [CEN-72, 6-(1-Naphthyl)-1,2,4-triazine-3,5-diamine] | – | 3.88 | 101 | 194 to 196 °C | – | – | – | – | –
CCn1nc(-c2cccs2)c(N)nc1=N [CEN-62, 5(3)-Amino-6-(2-thienyl)-2,3(2,5)-dihydro-3(5)-imino-2-ethyl-1,2,4-triazine methanesulfonate] | – | 3.85 | 46 | – | – | – | – | < 3.70 | -13
Cn1nc(-c2ccc3ccccc3c2)c(N)nc1=N [CEN-76, 5(3)-Amino-6-(2-naphthyl)-2,3(2,5)-dihydro-3(5)-imino-2-methyl-1,2,4-triazine methanesulfonate] | – | 4.11 | 6 | – | – | – | – | 5.40 | 74
Nc1nnc(-c2c3ccccc3cc3ccccc23)c(N)n1 [CEN-118, 6-(9-Anthracenyl)-3,5-diamino-1,2,4-triazine] | – | 2.94 | -7 | 350 to 352 °C | – | – | – | – | –
Nc1nnc(-c2cccc(OC(F)(F)C(F)F)c2)c(N)n1 [CEN-108, 3,5-Diamino-6-[3-(1,1,2,2-tetrafluoroethoxy)phenyl]-1,2,4-triazine] | – | 3.09 | 81 | 199 to 200 °C | – | – | – | – | –

Second part, led by results:

[3H]mtx binding (% inhibition @ 125 μM) [1] [%] | pIC50 [2] | inhibition at 125 µM [1] [%] | melting point | inhibition at 99 µM [1] [%] | Molecule | hERG % inhibition @ 10 μM [3] [%] | IC50 [3] [µM] | pIC50 [3] | inhibition at 10 µM [3] [%]
– | 3.23 | 4 | – | – | Nc1nnc(-c2ccc(Cl)nc2Cl)c(N)n1 [CEN-174, 3,5-Diamino-6-[3-(2,6-dichloropyidyl)]-1,2,4-triazine] | – | – | 4.00 | 9
– | 3.33 | 2 | – | – | CCn1nc(-c2cc(C(C)(C)C)cc(C(C)(C)C)c2)c(N)nc1=N [CEN-189, 5(3)-Amino-6-(3,5 bis-tert-butylphenyl)-2,3(2,5)-dihydro-3(5)-imino-2-ethyl-1,2,4-triazine methanesulphonate] | – | – | 4.05 | 10
−4 | 3.43 | – | – | – | COc1ccc2cc(C(C)c3nnc(N)nc3N)ccc2c1 (stereo not drawn) [CEN-165, 3,5-Diamino-6-[1-(6-methoxynaphthalene)ethy)-1,2,4-triazine] | 23 | 34 | – | –
– | 3.63 | 100 | 249 to 251 °C | – | Nc1nnc(-c2cc(Cl)cc(C(F)(F)F)c2)c(N)n1 [CEN-172, 3,5-Diamino-6-(3-chloro-5-trifluoromethylphenyl)-1,2,4-triazine] | – | – | – | –
– | 3.79 | 13 | 157 to 159 °C | – | Nc1nnc(C2(c3ccc(Cl)cc3)CC2)c(N)n1 [CEN-154, 3,5-Diamino-6-[1-(4-chlorophenyl)-1-cyclopropyl]-1,2,4-triazine] | – | – | – | –
– | 5.02 | 39 | 205 to 207 °C | – | Nc1nnc(C2(c3ccc(Cl)cc3)CCCCC2)c(N)n1 [CEN-145, 3,5-Diamino-6-[1-(4-chlorophenyl)-1-cyclohexyl]-1,2,4-triazine] | – | – | – | –
– | 3.46 | 95 | 238 to 239 °C | – | Nc1nnc(-c2cc(C(F)(F)F)ccc2Cl)c(N)n1 [CEN-169, 3,5-Diamino-6-(2-chloro 5 trifluoromethylphenyl)-1,2,4-triazine] | – | – | – | –
– | 4.80 | -7 | – | – | Cn1nc(-c2cccc(-c3ccccc3)c2)c(N)nc1=N [CEN-161, 5(3)-Amino-6-(3-biphenyl)-2,3(2,5)-dihydro-3(5)-imino-2-methyl-1,2,4-triazine methanesulfonate] | – | – | 6.00 | 88
– | 4.36 | 97 | 215 to 217 °C (dec.) | – | Nc1nnc(-c2cccc(-c3ccccc3)c2)c(N)n1 [CEN-159, 3,5-Diamino-6-(3-phenylphenyl)-1,2,4-triazine] | – | – | – | –
– | 4.38 | 86 | 284 to 286 °C | – | Nc1nnc(-c2cccc(OCc3ccccc3)c2)c(N)n1 [CEN-123, 3,5-Diamino-6-(3-Benzyloxyphenyl)-1,2,4-triazine] | – | – | – | –
– | < 2.70 | – | 225 to 228 °C | 91 | COc1cc(OC)cc(-c2nnc(N)nc2N)c1 [CEN-192, 3,5-Diamino-6-(3,5-dimethoxyphenyl)-1,2,4-triazine] | – | – | – | –
– | 3.87 | – | 185 to 187 °C | 99 | Nc1nnc(-c2cc(OCC(F)(F)F)cc(OCC(F)(F)F)c2)c(N)n1 [CEN-193, 3,5-Diamino-6-[3,5-bis(2,2,2-trifluoroethoxy)phenyl]-1,2,4-triazine] | – | – | – | –
– | < 3.00 | 92 | 272 to 275 °C | – | Nc1nnc(-c2cc(Br)c(Br)o2)c(N)n1 [CEN-121, 3,5-Diamino-6-[2-(4,5-dibromofuryl)]-1,2,4-triazine] | – | – | – | –
– | 4.17 | 76 | 142 to 144 °C | – | COc1cc(-c2nnc(N)nc2N)c(OC)c2ccccc12 [CEN-151] | – | – | – | –
– | < 2.70 | 27 | 274 to 276 °C | – | COc1ccc2cc(OC)c(-c3nnc(N)nc3N)cc2c1 [CEN-143] | – | – | – | –
– | 4.41 | 106 | 184 to 186 °C | – | CCCCc1ccc(-c2nnc(N)nc2N)cc1 [CEN-183, 3,5-Diamino-6-(4-n-butylphenyl)-1,2,4-triazine] | – | – | – | –
